Assay results as given in ChEMBL document CHEMBL6092192 (J Med Chem, 2024).
Active and inactive are the calls of the source. The rule behind the calls is not given here.

How the values were obtained:
SW620/AD300 [1] = assay: Reversal of paclitaxel resistance in human SW620/AD300 cells assessed as reversal fold by measuring ratio of paclitaxel IC50 to paclitaxel IC50 in presence of test compound incubated for 72 hrs by MTT assay; type: functional
SW-620 = assay: Cytotoxicity against human SW620 cells assessed as survival rate at 2 uM measured after 72 hrs by MTT assay relative to control; type: functional; settings: read-out: Survival
SW620/AD300 [2] = assay: Reversal of paclitaxel resistance in human SW620/AD300 cells assessed as reversal fold by measuring ratio of paclitaxel IC50 to paclitaxel IC50 in presence of test compound at 2 uM incubated for 72 hrs by MTT assay; type: functional
KB-C2 = assay: Cytotoxicity against human KB-C2 cells assessed as survival rate at 2 uM measured after 72 hrs by MTT assay relative to control; type: functional; settings: read-out: Survival
[3] = Reversal of paclitaxel resistance in HEK293 cells harbouring ABCB1 assessed as reversal fold by measuring ratio of paclitaxel IC50 to paclitaxel IC50 in presence of test compound at 2 uM incubated for 72 hrs by MTT assay; type: functional, Homo sapiens
[4] = Half life in 12 hrs fasted Sprague-Dawley rat at 1 mg/kg, iv measured upto 720 mins by HPLC-MS/MS analysis; type: ADME, organism-based; settings: in vivo
[5] = AUC (0 to t) in 12 hrs fasted Sprague-Dawley rat at 1 mg/kg, iv measured upto 720 mins by HPLC-MS/MS analysis; type: ADME, organism-based; settings: in vivo
[6] = MRT (0 to infinity) in 12 hrs fasted Sprague-Dawley rat at 1 mg/kg, iv measured upto 720 mins by HPLC-MS/MS analysis; type: ADME, organism-based; settings: in vivo
[7] = Tmax in 12 hrs fasted Sprague-Dawley rat at 10 mg/kg, po measured upto 720 mins by HPLC-MS/MS analysis; type: ADME, organism-based; settings: in vivo
[8] = AUC (0 to infinity) in 12 hrs fasted Sprague-Dawley rat at 10 mg/kg, po measured upto 720 mins by HPLC-MS/MS analysis; type: ADME, organism-based; settings: in vivo
[9] = MRT (0 to infinity) in 12 hrs fasted Sprague-Dawley rat at 10 mg/kg, po measured upto 720 mins by HPLC-MS/MS analysis; type: ADME, organism-based; settings: in vivo
[10] = molecular target: Voltage-gated inwardly rectifying potassium channel KCNH2 (Homo sapiens, UniProt Q12809); assay: Inhibition of human ERG expressed in CHO cells by QPatch assay; type: toxicity, cell-based
[11] = Toxicity in Sprague-Dawley rat assessed as fatality at 250 to 1000 mg/kg, po measured for 14 days administered as single dose; type: organism-based; settings: in vivo, 336 h, dose 250-1000 mg/kg, time 14 day
[12] = Toxicity in BALB/c nude mouse assessed as mortality at 100 mg/kg/day, IG measured after 21 days in presence of paclitaxel; type: organism-based; settings: in vivo, po, 504 h, time 21 day
SW620/AD300 [13] = assay: Antitumor activity against human SW620/AD300 cells xenografted in male BALB/c nude mouse model assessed as nuclear pyknosis at 100 mg/kg/day, IG in presence of paclitaxel by H and E staining based analysis; type: functional, organism-based
SW620/AD300 [14] = assay: Antitumor activity against human SW620/AD300 cells xenografted in male BALB/c nude mouse model assessed as increase in apoptosis at 100 mg/kg/day, IG in presence of paclitaxel by tunel staining based immunofluorescence analysis; type: functional, organism-based
CD8-positive T cell [15] = assay: Activation of immune response in human CD8-positive T cell assessed as increase in TNF-alpha level at 4 uM by ELISA method; type: functional, cell-based
CD8-positive T cell [16] = assay: Activation of immune response in human CD8-positive T cell assessed as increase in granzyme level at 4 uM by ELISA method; type: functional, cell-based
[17] = molecular target: T1, ATP-dependent translocase ABCB1 (Homo sapiens, UniProt P08183); assay: Activation of ABCB1 ATPase activity (unknown origin) infected in insect cells by measuring fold change at upto 40 uM incubated for 20 mins in presence of Mg-ATP by spectrophotometric analysis; settings: Insect cell, read-out: FC
[18] = Toxicity in BALB/c nude mouse xenografted with […] CT26/TAXOL cells assessed as mortality at 100 mg/kg/day, IG measured upto 14 days in presence of paclitaxel; type: organism-based; settings: in vivo, po, 336 h, time < 14 day
[19] = Toxicity in BALB/c nude mouse xenografted with […] CT26/TAXOL cells assessed as change in body weight at 100 mg/kg/day, IG measured upto 14 days in presence of paclitaxel; type: organism-based; settings: in vivo, po, 336 h, time < 14 day
[20] = Toxicity in BALB/c nude mouse xenografted with […] CT26/TAXOL cells assessed as change in body weight at 100 mg/kg/day, IG measured upto 14 days in presence of paclitaxel/anti-PD-1; type: organism-based; settings: in vivo, po, 336 h, time < 14 day
[21] = Toxicity in BALB/c nude mouse xenografted with […] CT26/TAXOL cells assessed as effect on spleen at 100 mg/kg/day, IG measured after 14 days by H and E staining based analysis; type: organism-based; settings: in vivo, po, 336 h, time 14 day
[22] = Toxicity in BALB/c nude mouse xenografted with […] CT26/TAXOL cells assessed as effect on lung at 100 mg/kg/day, IG measured after 14 days by H and E staining based analysis; type: organism-based; settings: in vivo, po, 336 h, time 14 day
[23] = Toxicity in BALB/c nude mouse xenografted with […] CT26/TAXOL cells assessed as effect on liver at 100 mg/kg/day, IG in presence of paclitaxel measured after 14 days by H and E staining based analysis; type: organism-based; settings: in vivo, po, 336 h, time 14 day
[24] = Toxicity in BALB/c nude mouse xenografted with […] CT26/TAXOL cells assessed as effect on spleen at 100 mg/kg/day, IG in presence of paclitaxel measured after 14 days by H and E staining based analysis; type: organism-based; settings: in vivo, po, 336 h, time 14 day
[25] = Toxicity in BALB/c nude mouse xenografted with […] CT26/TAXOL cells assessed as effect on lung at 100 mg/kg/day, IG in presence of paclitaxel measured after 14 days by H and E staining based analysis; type: organism-based; settings: in vivo, po, 336 h, time 14 day
[26] = Toxicity in BALB/c nude mouse xenografted with […] CT26/TAXOL cells assessed as effect on liver at 100 mg/kg/day, IG in presence of paclitaxel/anti-PD-1 measured after 14 days by H and E staining based analysis; type: organism-based; settings: in vivo, po, 336 h, time 14 day
[27] = Toxicity in BALB/c nude mouse xenografted with […] CT26/TAXOL cells assessed as effect on kidney at 100 mg/kg/day, IG in presence of paclitaxel/anti-PD-1 measured after 14 days by H and E staining based analysis; type: organism-based; settings: in vivo, po, 336 h, time 14 day
[28] = molecular target: T1, ATP-dependent translocase ABCB1; assay: Inhibition of ABCB1 in human SW620/AD300 cells assessed as increase in intracellular paclitaxel incubated for 4 hrs by liquid scintillation analysis; type: cell-based; settings: sw620/ad300, 4 h, at 2 to 4 µM, dose 2-4 µM
[29] = molecular target: T1, ATP-dependent translocase ABCB1; assay: Inhibition of ABCB1 in human SW620/AD300 cells assessed as increase in [3H]-PTX accumulation at 2 to 4 uM incubated for 4 hrs by liquid scintillation analysis; type: cell-based; settings: sw620/ad300, 4 h, dose 2-4 µM
Cytochrome P450 3A4 = Cytochrome P450 3A4 (Homo sapiens, UniProt P08684); assay: Activation of recombinant CYP3A4 in human liver microsomes at 4 uM measured after 30 mins in presence of NADPH generating system by fluorescence based analysis; type: ADME, Microsome; settings: 0.5 h
Cytochrome P450 3A4, sequence (P08684 whole entry): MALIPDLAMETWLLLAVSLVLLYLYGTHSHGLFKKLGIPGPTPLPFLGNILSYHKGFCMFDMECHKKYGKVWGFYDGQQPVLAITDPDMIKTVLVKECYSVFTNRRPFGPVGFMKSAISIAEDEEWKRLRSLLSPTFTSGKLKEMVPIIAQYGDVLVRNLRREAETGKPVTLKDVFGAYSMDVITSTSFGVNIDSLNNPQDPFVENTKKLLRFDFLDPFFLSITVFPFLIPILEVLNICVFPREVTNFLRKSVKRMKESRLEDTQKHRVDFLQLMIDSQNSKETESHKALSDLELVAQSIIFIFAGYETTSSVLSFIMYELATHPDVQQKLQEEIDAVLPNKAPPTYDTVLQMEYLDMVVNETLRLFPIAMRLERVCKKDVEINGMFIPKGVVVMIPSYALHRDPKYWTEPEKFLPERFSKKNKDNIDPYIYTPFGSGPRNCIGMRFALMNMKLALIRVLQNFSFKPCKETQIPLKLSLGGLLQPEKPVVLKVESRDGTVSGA

T1 sequence (P08183 whole entry): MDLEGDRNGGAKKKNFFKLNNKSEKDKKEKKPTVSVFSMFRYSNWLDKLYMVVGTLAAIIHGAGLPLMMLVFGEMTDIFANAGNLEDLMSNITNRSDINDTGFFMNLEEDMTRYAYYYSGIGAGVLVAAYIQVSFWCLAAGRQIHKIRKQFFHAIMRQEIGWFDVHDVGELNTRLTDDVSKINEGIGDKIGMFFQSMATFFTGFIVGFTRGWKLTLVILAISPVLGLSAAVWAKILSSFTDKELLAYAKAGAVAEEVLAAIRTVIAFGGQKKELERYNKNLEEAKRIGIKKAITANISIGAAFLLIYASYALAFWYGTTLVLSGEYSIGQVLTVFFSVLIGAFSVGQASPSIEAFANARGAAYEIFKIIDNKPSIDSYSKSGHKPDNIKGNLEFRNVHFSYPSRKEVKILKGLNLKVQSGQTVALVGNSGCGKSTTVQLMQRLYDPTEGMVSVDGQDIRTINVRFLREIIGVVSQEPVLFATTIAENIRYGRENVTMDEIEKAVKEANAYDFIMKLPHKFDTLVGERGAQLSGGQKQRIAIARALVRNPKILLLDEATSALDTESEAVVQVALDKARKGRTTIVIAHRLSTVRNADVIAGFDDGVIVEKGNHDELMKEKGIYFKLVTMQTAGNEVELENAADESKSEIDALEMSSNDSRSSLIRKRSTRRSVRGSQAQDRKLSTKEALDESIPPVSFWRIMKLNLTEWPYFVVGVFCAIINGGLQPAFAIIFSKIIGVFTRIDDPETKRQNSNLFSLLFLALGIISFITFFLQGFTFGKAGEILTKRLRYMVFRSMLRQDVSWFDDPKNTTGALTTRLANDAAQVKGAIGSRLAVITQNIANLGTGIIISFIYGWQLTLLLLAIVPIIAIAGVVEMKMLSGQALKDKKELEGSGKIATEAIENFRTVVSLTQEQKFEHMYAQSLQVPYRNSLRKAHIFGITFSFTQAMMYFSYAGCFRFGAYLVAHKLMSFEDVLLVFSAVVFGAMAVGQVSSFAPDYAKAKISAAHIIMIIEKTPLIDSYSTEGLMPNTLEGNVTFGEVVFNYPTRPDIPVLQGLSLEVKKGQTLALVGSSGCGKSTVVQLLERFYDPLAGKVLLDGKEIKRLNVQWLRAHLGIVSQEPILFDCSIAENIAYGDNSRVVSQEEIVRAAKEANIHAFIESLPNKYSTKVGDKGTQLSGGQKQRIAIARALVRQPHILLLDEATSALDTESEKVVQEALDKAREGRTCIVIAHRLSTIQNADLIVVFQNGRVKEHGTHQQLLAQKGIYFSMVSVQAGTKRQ
Voltage-gated inwardly rectifying potassium channel KCNH2, sequence (Q12809 whole entry): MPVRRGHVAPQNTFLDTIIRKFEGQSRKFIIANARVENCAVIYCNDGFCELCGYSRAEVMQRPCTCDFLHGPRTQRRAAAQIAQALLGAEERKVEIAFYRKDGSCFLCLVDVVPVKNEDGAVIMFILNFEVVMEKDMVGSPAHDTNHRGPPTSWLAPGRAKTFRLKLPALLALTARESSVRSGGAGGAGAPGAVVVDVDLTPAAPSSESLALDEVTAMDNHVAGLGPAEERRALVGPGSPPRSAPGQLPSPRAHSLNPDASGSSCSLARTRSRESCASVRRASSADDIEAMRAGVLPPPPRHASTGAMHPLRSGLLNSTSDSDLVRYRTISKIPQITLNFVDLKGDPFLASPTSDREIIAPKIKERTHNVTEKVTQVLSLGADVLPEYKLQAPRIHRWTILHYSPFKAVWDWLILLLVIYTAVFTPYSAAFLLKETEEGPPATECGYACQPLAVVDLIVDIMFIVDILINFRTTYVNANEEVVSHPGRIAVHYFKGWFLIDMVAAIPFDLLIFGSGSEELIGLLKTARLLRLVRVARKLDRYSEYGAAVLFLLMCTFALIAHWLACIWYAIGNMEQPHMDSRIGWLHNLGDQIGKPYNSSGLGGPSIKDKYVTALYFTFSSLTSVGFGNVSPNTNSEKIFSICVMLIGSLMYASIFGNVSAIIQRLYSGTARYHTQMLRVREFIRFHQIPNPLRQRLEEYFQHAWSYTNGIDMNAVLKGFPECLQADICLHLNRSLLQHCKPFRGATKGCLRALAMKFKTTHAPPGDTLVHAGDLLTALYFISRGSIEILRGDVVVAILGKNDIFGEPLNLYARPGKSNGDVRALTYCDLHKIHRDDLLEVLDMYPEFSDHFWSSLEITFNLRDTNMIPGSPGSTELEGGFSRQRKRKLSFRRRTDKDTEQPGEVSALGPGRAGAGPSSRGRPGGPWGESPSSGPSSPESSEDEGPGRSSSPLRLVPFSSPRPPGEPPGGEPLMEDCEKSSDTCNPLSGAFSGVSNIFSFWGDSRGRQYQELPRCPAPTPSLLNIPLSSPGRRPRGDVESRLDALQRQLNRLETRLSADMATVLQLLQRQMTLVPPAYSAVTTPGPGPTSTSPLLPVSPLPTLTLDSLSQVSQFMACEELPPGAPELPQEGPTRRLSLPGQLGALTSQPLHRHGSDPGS

## O=c1c2c([nH]c3nc(SCc4nc5ccccc5s4)nn13)CCC2
SW620/AD300 [1]
  Ratio IC50: 864
SW-620
  viability at 2 µM: 95.9%
SW620/AD300 [2]
  Ratio IC50: 168.91
KB-C2
  viability at 2 µM: 96.2%
[3]
  Ratio IC50: 7.82
[4]
  half-life: 5.37 h
[5]
  AUC(0-t) at 12 h: 880 ng·h/mL
[6]
  MRT inf: 5.49 h
[7]
  Tmax: 6 h
[8]
  AUC(0-inf): 5840 ng·h/mL
[9]
  MRT inf: 7.24 h
[10]
  IC50: > 50 µM
[11]
  Activity: Non-toxic
[12]
  Activity: Non-toxic
SW620/AD300 [13]
  Activity: Active
SW620/AD300 [14]
  Activity: Active
CD8-positive T cell [15]
  Activity: Active
CD8-positive T cell [16]
  Activity: Active
[17]
  fold induction at up to 40 µM: 2.5
[18]
  Activity: Non-toxic
[19]
  Activity: Non-toxic
[20]
  Activity: Non-toxic
[21]
  Activity: Non-toxic
[22]
  Activity: Non-toxic
[23]
  Activity: Non-toxic
[24]
  Activity: Non-toxic
[25]
  Activity: Non-toxic
[26]
  Activity: Non-toxic
[27]
  Activity: Non-toxic
[28]
  inhibition (INH): Dose-dependent-effect
[29]
  inhibition (INH): Active
Cytochrome P450 3A4
  Activity: Active
